From patent US20210369874A1, “COMPOSITION FOR DETECTING BIOFILMS ON VIABLE TISSUES” (CONVATEC TECHNOLOGIES INC., priority 2010, published 2021)
“And” between values parts separate entries of the source, which are not always exact repeats. Equal values may be shown once.

Assays:
Assay type in all cases: cell-based
[1] = test system: S. aureus biofilms; experiment: Rose Bengal staining of biofilms, membrane filter biofilm model (S. aureus); settings: 30 seconds
Description: (§1) A membrane filter biofilm model was used to study the effect of Rose Bengal concentration on the efficacy of biofilm staining. Briefly, a 5 μl volume of a 5×10^5 cfu/ml suspension of S. aureus or P. aeruginosa was added to the centre of sterile membrane filter discs (pore size 0.2 μm; Anodise, Whatman) which were placed onto 7 ml volumes of sterile Tryptic Soya Broth in lidded 6-well plates. Samples were incubated for 4 hours (immature biofilms), and 24 and 48 hours (mature biofilms), and excess planktonic cells were rinsed from the filters. The biofilms on the filters were stained by pipetting 2 ml volumes of Rose Bengal (60 μM or 300 μM) or saline (negative control) for 30 seconds, followed by rinsing. Rose Bengal was recovered from the biofilm samples by stomaching and overnight digestion in 2% sodium dodecyl sulphate, centrifugation, then measuring of absorption spectra in a UV-vis spectrophotometer. Rose Bengal uptake per sample was determined by comparison of absorption values with a standard curve of Rose Bengal in 2% SDS. […] Only at the highest concentrations of 300 μM did the immature, 4-hour biofilms appear to be stained, although this was likely due to some staining of the filters themselves. […] This simple method for quantifying the uptake of Rose Bengal by biofilms utilises the absorption spectra of the dye. Using the absorption spectra to quantify the dye is similar to detecting the fluorescence using a light source with optical filters. Uptake could then alternatively be observed qualitatively using the naked eye or by observing the fluorescence emission of the Rose Bengal in conjunction with a light source and optical filter.

[2] = test system: P. aeruginosa biofilms; experiment: Rose Bengal staining of biofilms, membrane filter biofilm model (P. aeruginosa); settings: 30 seconds
Description: as §1

[3] = test system: mixed biofilms of Staphylococcus aureus and Pseudomonas aeruginosa; experiment: Assessment of biofilm stains using the CDC biofilm reactor; settings: 100 μM stain, two minutes, 48 hour mixed biofilms, n=9
Description: A Centre for Disease Control (CDC) biofilm reactor was used to culture 48 hour mixed biofilms of Staphylococcus aureus and Pseudomonas aeruginosa. Briefly, biofilms were formed on coupons on reactor rods which were held within the reactor vessel containing a continuously mixed culture of S. aureus and P. aeruginosa at 35° C. Biofilm-containing coupons were removed from the rods, rinsed once by dipping in sterile saline for 5 seconds, then incubated in 10 ml volumes of the following biofilm stains at 100 μM concentration in deionised water, in the dark for two minutes: Erythrosine; Rose Bengal; Alcian Blue; Rhodamine B; Rhodamine 123; Rose Bengal with 2% w/v EDTA and 1% w/v BaCl (RBEB). Following another rinse in saline, nine coupons for each stain were each added to 2 ml volumes of 2% SDS for stomaching at ‘high’ setting for 1 minute then incubated overnight in the dark at 37° C., for digestion. Samples were then spun at 13,000 rpm for 5 minutes to separate the supernatant from digested cell debris. Absorption spectra of the aspired supernatants were then measured in a spectrophotometer and these spectra compared to spectra of known concentrations (100 μM) of each stain in 2% SDS.

[4] = test system: mixed biofilms of Staphylococcus aureus and Pseudomonas aeruginosa; experiment: Assessment of biofilm stains using the constant-depth biofilm fermenter (CDFF); settings: 100 μM stain, two minutes, 4-day mixed biofilms, n=6
Source text: A constant depth biofilm fermenter (CDFF) was used to culture 4-day mixed biofilms of Staphylococcus aureus and Pseudomonas aeruginosa. Briefly, biofilms were formed in recesses in 15 PTFE pans around the rim of a rotating steel turntable onto which inoculum or sterile growth media was allowed to steadily drip. A scraper bar distributed bacterial inoculum or media over the pans as the turntable rotated, maintaining the biofilms at a steady depth. Each pan contained 5 removable plugs, 4 mm in diameter which were recessed to a depth of 300 μm. The resulting biofilms that grew in the plug recesses were reproducible in terms of appearance and microbiological composition and could be removed from the CDFF through a sampling port using sterile instruments. […] Absorption spectra of the aspired supernatants were then measured in a spectrophotometer and these spectra compared to spectra of known concentrations (100 μM) of each stain in 2% SDS.

[5] = S. aureus biofilm age 4 h, [RB] 60 μM
[6] = P. aeruginosa biofilm age 4 h, [RB] 60 μM

O=C([O-])c1c(Cl)c(Cl)c(Cl)c(Cl)c1-c1c2cc(I)c(=O)c(I)c-2oc2c(I)c([O-])c(I)cc12.[Na+].[Na+] [Rose Bengal]
Rose Bengal uptake per sample, Avg [1, 5]: 0
Rose Bengal uptake per sample, single replicates 1-3 [1, 5]: 0
Rose Bengal uptake per sample, Avg ([1]; S. aureus biofilm age 4 h, [RB] 300 μM, likely some staining of the filters themselves): 1.56
Rose Bengal uptake per sample, single replicates 1-3 ([1]; S. aureus biofilm age 4 h, [RB] 300 μM, likely some staining of the filters themselves, listed as RB): 1.59 and 1.45 and 1.64
Rose Bengal uptake per sample, Avg ([1]; S. aureus biofilm age 24 h, [RB] 60 μM): 1.85
Rose Bengal uptake per sample, single replicates 1-3 ([1]; S. aureus biofilm age 24 h, [RB] 60 μM, listed as RB): 1.66 and 1.72 and 2.17
Rose Bengal uptake per sample, Avg ([1]; S. aureus biofilm age 24 h, [RB] 300 μM): 4.44
Rose Bengal uptake per sample, single replicates 1-3 ([1]; S. aureus biofilm age 24 h, [RB] 300 μM, listed as RB): 4.82 and 4.55 and 3.95
Rose Bengal uptake per sample, Avg ([1]; S. aureus biofilm age 48 h, [RB] 60 μM): 1.24
Rose Bengal uptake per sample, single replicates 1-3 ([1]; S. aureus biofilm age 48 h, [RB] 60 μM, listed as RB): 1.22 and 1.12 and 1.37
Rose Bengal uptake per sample, Avg ([1]; S. aureus biofilm age 48 h, [RB] 300 μM): 5.72
Rose Bengal uptake per sample, single replicates 1-3 ([1]; S. aureus biofilm age 48 h, [RB] 300 μM, listed as RB): 6.26 and 5.18 and 5.71
Rose Bengal uptake by mature biofilms (in words) ([1]; S. aureus, 24 and 48 hours biofilms, 60 μM or 300 μM): dye concentration- and biofilm age-dependent manner
Rose Bengal uptake per sample, Avg [2, 6]: 0
Rose Bengal uptake per sample, single replicates 1-3 [2, 6]: 0
Rose Bengal uptake per sample, Avg ([2]; P. aeruginosa biofilm age 4 h, [RB] 300 μM, likely some staining of the filters themselves): 1.72
Rose Bengal uptake per sample, single replicates 1-3 ([2]; P. aeruginosa biofilm age 4 h, [RB] 300 μM, likely some staining of the filters themselves, listed as RB): 1.52 and 1.76 and 1.88
Rose Bengal uptake per sample, Avg ([2]; P. aeruginosa biofilm age 24 h, [RB] 60 μM): 1.94
Rose Bengal uptake per sample, single replicates 1-3 ([2]; P. aeruginosa biofilm age 24 h, [RB] 60 μM, listed as RB): 2.04 and 1.76 and 2.02
Rose Bengal uptake per sample, Avg ([2]; P. aeruginosa biofilm age 24 h, [RB] 300 μM): 5.10
Rose Bengal uptake per sample, single replicates 1-3 ([2]; P. aeruginosa biofilm age 24 h, [RB] 300 μM, listed as RB): 5.05 and 5.84 and 4.41
Rose Bengal uptake per sample, Avg ([2]; P. aeruginosa biofilm age 48 h, [RB] 60 μM): 2.39
Rose Bengal uptake per sample, single replicates 1-3 ([2]; P. aeruginosa biofilm age 48 h, [RB] 60 μM, listed as RB): 3.15 and 1.66 and 2.37
Rose Bengal uptake per sample, Avg ([2]; P. aeruginosa biofilm age 48 h, [RB] 300 μM): 7.30
Rose Bengal uptake per sample, single replicates 1-3 ([2]; P. aeruginosa biofilm age 48 h, [RB] 300 μM, listed as RB): 6.20 and 9.01 and 6.69
Rose Bengal uptake by mature biofilms (in words) ([2]; P. aeruginosa, 24 and 48 hours biofilms, 60 μM or 300 μM): dye concentration- and biofilm age-dependent manner

Alcian Blue
biofilm staining expressed as ratio of measured absorption: absorption at 100 1.1M (i.e. concentration) (FIG. 2b) [3]: most effective biofilm stain

CCN(Cc1cccc(S(=O)(=O)[O-])c1)c1ccc(C(=C2C=CC(=[N+](CC)Cc3cccc(S(=O)(=O)[O-])c3)C=C2)c2ccc(O)cc2S(=O)(=O)[O-])cc1.[Na+].[Na+] [Fast Green]
effectiveness as stain of biofilms grown in the CDFF (FIG. 1) [4]: most effective stain
